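Growth conditions: 96-well plates. Treatment: test compound, 48 hours, 5 concentrations. Analysis: linear interpolation between bracketing concentrations; unreached endpoints set to highest concentration. Definition used: TGI = concentration required for complete inhibition of growth.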
Columns and labels:
Experiment in all cases: NCI tumour cell line growth inhibition, 48 h
[1] = tested on: SK-MEL-2 melanoma
[2] = tested on: HOP-92 NSCLC
[3] = tested on: RXF-631 renal
[4] = tested on: SNB-19 CNS
[5] = tested on: 786-0 renal
[6] = tested on: EKVX NSCLC
[7] = tested on: CAKI-1 renal
[8] = tested on: DMS 114 small cell lung
[9] = tested on: NCI-H522 lung
[10] = tested on: LXFL 529 NSCLC
[11] = tested on: UO-31 renal
[12] = tested on: IGROV1 ovarian
[13] = tested on: LOX IMVI melanoma
[14] = tested on: SNB-78 CNS
[15] = tested on: MALME-3M melanoma
[16] = tested on: OVCAR-8 ovarian
[17] = tested on: UACC-62 melanoma
[18] = tested on: SF-268 CNS
[19] = tested on: HOP-62 NSCLC
[20] = tested on: M14 melanoma
[21] = tested on: HCT-15 colon
[22] = tested on: SK-MEL-5 melanoma
[23] = tested on: SF-295 CNS
[24] = tested on: K-562 leukemia
[25] = tested on: HL-60(TB) leukemia
[26] = tested on: CCRF-CEM leukemia
[27] = tested on: ACHN renal
[28] = tested on: COLO 205 colon
[29] = tested on: M19-MEL melanoma
[30] = tested on: SK-MEL-28 melanoma
[31] = tested on: DMS 273 small cell lung
[32] = tested on: A549 NSCLC
[33] = tested on: HOP-18 NSCLC
[34] = tested on: SR leukemia
[35] = tested on: DLD-1 colon
[36] = tested on: KM12 colon
[37] = tested on: NCI-H460 lung
[38] = tested on: SW-620 colon
[39] = tested on: HCC-2998 colon
[40] = tested on: RPMI-8226 leukemia
[41] = tested on: HT29 colon
[42] = tested on: KM20L2 colon
[43] = tested on: SK-OV-3 ovarian
[44] = tested on: HCT-116 colon
[45] = tested on: XF 498 CNS
[46] = tested on: SNB-75 CNS
[47] = tested on: TK-10 renal
[48] = tested on: RXF 393 renal
[49] = tested on: OVCAR-5 ovarian
[50] = tested on: NCI-H23 lung
[51] = tested on: UACC-257 melanoma
[52] = tested on: SF-539 CNS
[53] = tested on: A498 renal
[54] = tested on: MOLT-4 leukemia
[55] = tested on: NCI-H226 lung
[56] = tested on: OVCAR-4 ovarian
[57] = tested on: SN12C renal
[58] = tested on: U251 CNS
[59] = tested on: OVCAR-3 ovarian
[60] = tested on: P388 leukemia
[61] = tested on: MCF7 breast
[62] = tested on: P388/ADR leukemia
[63] = tested on: SN12K1 renal
[64] = tested on: NCI/ADR-RES ovarian

COc1ccccc1NC(=O)C(=O)C(c1cnc2ccc([N+](=O)[O-])cc2n1)[N+](=O)[O-] (centres undefined)
TGI [1]: > 100 µM | TGI [2]: > 100 µM | TGI [3]: > 100 µM | TGI [4]: > 100 µM | TGI [5]: > 100 µM | TGI [6]: > 100 µM | TGI [7]: > 100 µM | TGI [8]: 66.4 µM | TGI [9]: > 100 µM | TGI [10]: > 100 µM | TGI [11]: > 100 µM | TGI [12]: > 100 µM | TGI [13]: > 100 µM | TGI [14]: > 100 µM | TGI [15]: > 100 µM | TGI [16]: > 100 µM | TGI [17]: > 100 µM | TGI [18]: > 100 µM | TGI [19]: > 100 µM | TGI [20]: > 100 µM | TGI [21]: > 100 µM | TGI [22]: > 100 µM | TGI [23]: > 100 µM | TGI [24]: > 100 µM | TGI [25]: > 100 µM | TGI [26]: > 100 µM | TGI [27]: > 100 µM | TGI [28]: > 100 µM | TGI [29]: > 100 µM | TGI [30]: > 100 µM | TGI [31]: > 100 µM | TGI [32]: > 100 µM | TGI [33]: > 100 µM | TGI [34]: > 100 µM | TGI [35]: > 100 µM | TGI [36]: > 100 µM | TGI [37]: > 100 µM | TGI [38]: > 100 µM | TGI [39]: > 100 µM | TGI [40]: > 100 µM | TGI [41]: > 100 µM | TGI [42]: > 100 µM | TGI [43]: > 100 µM | TGI [44]: > 100 µM | TGI [45]: > 100 µM | TGI [46]: > 100 µM | TGI [47]: > 100 µM | TGI [48]: > 100 µM | TGI [49]: > 100 µM | TGI [50]: > 100 µM | TGI [51]: > 100 µM | TGI [52]: > 100 µM | TGI [53]: > 100 µM | TGI [54]: > 100 µM | TGI [55]: > 100 µM | TGI [56]: > 100 µM | TGI [57]: > 100 µM | TGI [58]: > 100 µM

O=[N+]([O-])c1cc(C(F)(F)F)cc2c1SC1=Nc3ccccc3CN12
TGI [1]: > 100 µM | TGI [59]: > 100 µM | TGI [2]: > 100 µM | TGI [4]: > 100 µM | TGI [60]: > 100 µM | TGI [6]: > 100 µM | TGI [7]: > 100 µM | TGI [8]: > 100 µM | TGI [9]: > 100 µM | TGI [11]: > 100 µM | TGI [12]: > 100 µM | TGI [13]: > 100 µM | TGI [14]: > 100 µM | TGI [15]: > 100 µM | TGI [16]: > 100 µM | TGI [17]: > 100 µM | TGI [61]: > 100 µM | TGI [18]: > 100 µM | TGI [19]: > 100 µM | TGI [21]: > 100 µM | TGI [22]: > 100 µM | TGI [23]: > 100 µM | TGI [24]: > 100 µM | TGI [25]: > 100 µM | TGI [26]: > 100 µM | TGI [28]: > 100 µM | TGI [29]: > 100 µM | TGI [30]: > 100 µM | TGI [31]: > 100 µM | TGI [32]: > 100 µM | TGI [33]: > 100 µM | TGI [62]: > 100 µM | TGI [35]: > 100 µM | TGI [63]: > 100 µM | TGI [64]: > 100 µM | TGI [36]: > 100 µM | TGI [37]: > 100 µM | TGI [38]: > 100 µM | TGI [39]: > 100 µM | TGI [40]: > 100 µM | TGI [41]: > 100 µM | TGI [42]: > 100 µM | TGI [43]: > 100 µM | TGI [44]: > 100 µM | TGI [45]: > 100 µM | TGI [46]: > 100 µM | TGI [48]: > 100 µM | TGI [49]: > 100 µM | TGI [50]: > 100 µM | TGI [51]: > 100 µM | TGI [52]: > 100 µM | TGI [53]: > 100 µM | TGI [54]: > 100 µM | TGI [55]: > 100 µM | TGI [56]: > 100 µM | TGI [57]: > 100 µM | TGI [58]: > 100 µM

CCc1cc2c(Nc3ccccc3)c3c(nc2s1)CCCC3
TGI [1]: > 100 µM | TGI [59]: > 100 µM | TGI [2]: > 100 µM | TGI [3]: > 100 µM | TGI [4]: > 100 µM | TGI [5]: > 100 µM | TGI [6]: > 100 µM | TGI [8]: > 100 µM | TGI [10]: > 100 µM | TGI [11]: > 100 µM | TGI [12]: > 100 µM | TGI [13]: 42 µM | TGI [14]: > 100 µM | TGI [15]: > 100 µM | TGI [16]: > 100 µM | TGI [17]: > 100 µM | TGI [18]: > 100 µM | TGI [19]: > 100 µM | TGI [20]: > 100 µM | TGI [21]: > 100 µM | TGI [22]: > 100 µM | TGI [23]: > 100 µM | TGI [24]: > 100 µM | TGI [25]: > 100 µM | TGI [26]: > 100 µM | TGI [27]: > 100 µM | TGI [28]: > 100 µM | TGI [29]: > 100 µM | TGI [30]: > 100 µM | TGI [31]: > 100 µM | TGI [32]: > 100 µM | TGI [33]: > 100 µM | TGI [34]: 47.2 µM | TGI [35]: > 100 µM | TGI [36]: > 100 µM | TGI [37]: > 100 µM | TGI [38]: > 100 µM | TGI [39]: > 100 µM | TGI [40]: 87 µM | TGI [42]: > 100 µM | TGI [43]: > 100 µM | TGI [44]: > 100 µM | TGI [45]: 85.1 µM | TGI [46]: 39.1 µM | TGI [47]: > 100 µM | TGI [48]: > 100 µM | TGI [49]: > 100 µM | TGI [51]: > 100 µM | TGI [52]: > 100 µM | TGI [53]: > 100 µM | TGI [54]: > 100 µM | TGI [56]: > 100 µM | TGI [57]: > 100 µM | TGI [58]: > 100 µM

Source: PubChem BioAssay (NCI)
